Data on 11 compounds can be found in ChEMBL document CHEMBL3407417 (J Med Chem, 2015).

Data set [1] can be described thus: Thermodynamic solubility of the compound in buffer containing 20 mmol/L of sodium taurocholate at pH 6.8. It counts as physicochemical. As to conditions: buffer containing 20 mmol/L sodium taurocholate, read-out: Therm_solubility.
The nature of data set [2]: Stability in rat liver microsomes assessed as compound remaining after 30 mins. It is filed as ADME. As to conditions: read-out: Stability.
The nature of data set [3]: Plasma clearance in Sprague-Dawley rat at 0.5 mg/kg, iv. It is filed as ADME, organism-based. Also on record: dose 0.5 mg/kg, route intravenous.
Data set [4] is described as follows: Volume of distribution at steady state in Sprague-Dawley rat at 0.5 mg/kg, iv. It counts as ADME, organism-based. Also on record: dose 0.5 mg/kg, route intravenous. The following applies: in vivo, read-out: Vdss.
The nature of data set [5]: Oral bioavailability in Sprague-Dawley rat at 1 mg/kg. It counts as ADME, organism-based. The following applies: in vivo.
Data set [6] can be described thus: AUC in Sprague-Dawley rat at 1 mg/kg, po. Also on record: dose 1 mg/kg, route oral. It is filed as ADME, organism-based. The following applies: plasma.
The nature of data set [7]: Cmax in Sprague-Dawley rat at 1 mg/kg, po. It counts as ADME, organism-based. Details: dose 1 mg/kg, route oral. As to conditions: in vivo.
A further data set concerns A549. In words: cells. As to conditions: Homo sapiens, A549, 72 h.
A short description of data set [8]: Cmax in BALB/c AJcl-nu/nu mouse at 10 mg/kg, po. Details: dose 10 mg/kg, route oral. The following applies: in vivo. It counts as ADME, organism-based.
Data set [9] can be described thus: Cmax in BALB/c AJcl-nu/nu mouse at 100 mg/kg, po. As to conditions: in vivo. It is filed as ADME, organism-based. Also on record: dose 100 mg/kg, route oral.
The nature of data set [10]: AUC in BALB/c AJcl-nu/nu mouse at 10 mg/kg, po. It is filed as ADME, organism-based. Details: dose 10 mg/kg, route oral. As to conditions: plasma.
Data set [11] can be described thus: AUC in BALB/c AJcl-nu/nu mouse at 100 mg/kg, po. As to conditions: plasma. Also on record: dose 100 mg/kg, route oral. It is filed as ADME, organism-based.
Data set [12] can be described thus: Tmax in BALB/c AJcl-nu/nu mouse at 10 mg/kg, po. As to conditions: in vivo. Details: dose 10 mg/kg, route oral. It counts as ADME, organism-based.
The nature of data set [13]: Tmax in BALB/c AJcl-nu/nu mouse at 100 mg/kg, po. As to conditions: in vivo. Details: dose 100 mg/kg, route oral. It is filed as ADME, organism-based.
In the next data set the test system is Plasma. Nature of the data set: Fraction unbound in rat plasma. It counts as ADME, cell-free.
Data set [14] deals with NCI-H460. Nature of the data set: Antitumor activity against human NCI-H460 cells xenografted in nude mouse assessed as tumor growth inhibition at 2.5 mg/kg, po qd for 2 weeks relative to control. It counts as functional. (In general: Xenograft models place foreign cells or tissue in a host animal.)
In data set [15] the test system is NCI-H460. Nature of the data set: Antitumor activity against human NCI-H460 cells xenografted in nude mouse assessed as tumor growth inhibition at 5 mg/kg, po qd for 2 weeks relative to control. It counts as functional.
For data set [16], the system named is NCI-H460. Nature of the data set: Antitumor activity against human NCI-H460 cells xenografted in nude mouse assessed as tumor growth inhibition at 10 mg/kg, po qd for 2 weeks relative to control. It counts as functional.
In data set [17] the test system is Mus musculus. Nature of the data set: Toxicity in human NCI-H460 cells xenografted nude mouse assessed as body weight loss at 5 mg/kg, po qd for 2 weeks relative to control. It is filed as organism-based. Also on record: dose 5 mg/kg, route oral. As to conditions: in vivo, 336 h.
Data set [18] relates to Mus musculus. Nature of the data set: Toxicity in human NCI-H460 cells xenografted nude mouse assessed as body weight loss at 10 mg/kg, po qd for 2 weeks relative to control. Details: dose 10 mg/kg, route oral. It is filed as organism-based. As to conditions: in vivo, 336 h.
For data set [19], the system named is Mus musculus. In words: Toxicity in human NCI-H460 cells xenografted nude mouse assessed as mortality at 5 to 10 mg/kg, po qd for 2 weeks relative to control. The following applies: in vivo, 336 h. Also on record: dose 5-10 mg/kg, route oral. It is filed as organism-based.
Data set [20] has as its system Mus musculus. In words: Toxicity in human NCI-H460 cells xenografted nude mouse assessed as body weight loss at 2.5 mg/kg, po qd for 2 weeks relative to control. It counts as organism-based. Details: dose 2.5 mg/kg, route oral. The following applies: in vivo, 336 h.
Another data set relates to NCI-H358. Nature of the data set: Antiproliferative activity against human NCI-H358 cells after 72 hrs by WST8 assay. It is filed as functional, cell-based. As to conditions: NCI-H358, 72 h. Background: Tetrazolium assays rely on reduction of a dye to a coloured formazan, in cell work by metabolically active cells.
The test system of the next data set is MRC5. In words: Antiproliferative activity against human MRC5 cells after 72 hrs by WST8 assay. It is filed as cell-based. The following applies: MRC5, 72 h.
A short description of data set [21]: cells. The following applies: Homo sapiens, LU-99A, 72 h.
Description: Antiproliferative activity against human LU99A cells after 72 hrs by WST8 assay
Data set [22] in a line: cells. As to conditions: Homo sapiens, Lu116, 72 h.
Description: Antiproliferative activity against human Lu116 cells after 72 hrs by WST8 assay
Data set [23] can be described thus: cells. The following applies: Homo sapiens, LC-2-ad, 72 h.
Description: Antiproliferative activity against human LC2/ad cells after 72 hrs by WST8 assay
Data set [24] is described as follows: cells. As to conditions: Homo sapiens, PC-14, 72 h.
Description: Antiproliferative activity against human PC14 cells after 72 hrs by WST8 assay
Data set [25] in a line: cells. As to conditions: Homo sapiens, HCT-15, 72 h.
Description: Antiproliferative activity against human HCT15 cells after 72 hrs by WST8 assay
A short description of data set [26]: cells. The following applies: Homo sapiens, HCT-116, 72 h.
Description: Antiproliferative activity against human HCT116 cells after 72 hrs by WST8 assay
Another data set deals with HT-29. In words: cells. As to conditions: Homo sapiens, HT-29, 72 h.
The nature of data set [27]: cells. The following applies: Homo sapiens, MIA PaCa-2, 72 h.
Description: Antiproliferative activity against human MIAPaCa2 cells after 72 hrs by WST8 assay
The nature of data set [28]: cells. The following applies: Homo sapiens, GSS, 72 h.
Description: Antiproliferative activity against human GSS cells after 72 hrs by WST8 assay
Data set [29] is described as follows: cells. The following applies: Homo sapiens, MKN-45, 72 h.
Description: Antiproliferative activity against human MKN45 cells after 72 hrs by WST8 assay
Data set [30] is described as follows: cells. The following applies: Homo sapiens, HL-60, 72 h.
Description: Antiproliferative activity against human HL60 cells after 72 hrs by WST8 assay
Data set [31] relates to NCI-H460. In words: cells. The following applies: Homo sapiens, NCI-H460, 72 h.
Description: Antiproliferative activity against human NCI-H460 cells after 72 hrs by WST8 assay

≈ marks a conversion by molar mass, not a printed value.

Broadly, the clearance is a measure of how efficiently the substance is removed, as volume per time. Lower therefore signals a low capacity for elimination. The bioavailability is the share of a dose that reaches the circulation, judged against a reference dose that is usually intravenous. Read a high bioavailability as good availability. In general, AUC refers to the area under the concentration-time curve, a measure of exposure. Read a high AUC as more exposure. For orientation: Cmax means the peak of the concentration-time curve. The term IC50 denotes the midpoint of a concentration-inhibition curve. The low end stands for higher potency, the high end for lower potency. In general, Tmax refers to the time from dosing to the highest level. Usually T/C stands for the ratio of treated to control.

Description for HT-29: Antiproliferative activity against human HT-29 cells after 72 hrs by WST8 assay

Turning to `N#Cc1ccc(-c2cc(NCC3CCOCC3)c3ncc(-c4ccc(C(=O)NC5CC5)cc4)n3n2)c(N)c1`, the solubility thermodynamic in data set [1] stood at 2.6 µg/mL (≈ 5.12 µM). In data set [2], the remaining at 0.5 h turned out to be 59%. In addition, in data set [3], the clearance was 23 mL/min/kg. Also, in [4], the Vd worked out at 2 L/kg. Moreover, the bioavailability in data set [5] worked out at 0%.

For the compound `CC(C)(C)Nc1cc(NCC2CCOCC2)c2ncc(-c3ccc(C(=O)NC4CC4)cc3)n2n1`, the solubility thermodynamic in [1] amounted to 63 µg/mL (≈ 136 µM). Besides, the remaining at 0.5 h in data set [2] is 59%. Further, the clearance in data set [3] is 16 mL/min/kg. Further, the Vd in data set [4] is 1.7 L/kg. This compound also came in with an area under the curve (AUC) in data set [6] of 377 ng·h/mL. The compound also had a Cmax in data set [7] of 50 ng/mL. In [5], this compound returned a bioavailability of 36%.

Take `O=C(NC1CC1)c1ccc(-c2cnc3c(NCC4CCOCC4)nccn23)cc1`: the IC50 in the data set with A549 is 1500 nM.

Regarding `O=C(NC1CC1)c1ccc(-c2cnc3c(NCC4CCOCC4)cc(Oc4ccccc4O)nn23)cc1`, the solubility thermodynamic in data set [1] stood at 1.3 µg/mL (≈ 2.6 µM). Besides, in data set [2], the remaining at 0.5 h amounted to 21%. The compound further registered a clearance in data set [3] of 78 mL/min/kg. Also, the Vd in [4] came to 2.2 L/kg. Further, in data set [5], the bioavailability came out at 0%.

For the compound `O=C(NC1CC1)c1ccc(-c2cnc3c(NCC4CCOCC4)cc(OC4CCCCC4)nn23)cc1`, the solubility thermodynamic in data set [1] amounted to 10 µg/mL (≈ 20.4 µM). Besides, in [2], the remaining at 0.5 h worked out at 55%. Also, the clearance in [3] amounted to 8.7 mL/min/kg. For the same compound, in [4], the Vd amounted to 1.6 L/kg. This compound also came in with an area under the curve (AUC) in [6] of 439 ng·h/mL. Further, the maximum concentration (Cmax) in data set [7] is 33 ng/mL. Further, the bioavailability in [5] came out at 23%.

Take `CC(C)(Nc1cc(NCC2CCOCC2)c2ncc(-c3ccc(C(=O)NC4CC4)cc3)n2n1)C(F)(F)F`: the solubility thermodynamic in data set [1] was 29 µg/mL (≈ 56.1 µM). Further, the remaining at 0.5 h in data set [2] worked out at 41%. Also, in [3], the clearance came to 11 mL/min/kg. Further, the Vd in data set [4] was 1.3 L/kg. Further, the figures for the AUC in data set [6], in data set [10] and in [11] were 360 ng·h/mL, 8000 ng·h/mL and 48500 ng·h/mL, respectively. For the same compound, the Cmax came to 38 ng/mL in data set [7], 2430 ng/mL in data set [8] and 14000 ng/mL in data set [9]. In data set [5], this compound showed a bioavailability of 24%. For the same compound, the Tmax in data set [12] was 30 min; in [13], 60 min. In the data set on Plasma, this compound displayed a Fu of 0.51%. Also, the T/C in the data set on NCI-H460 [14] was found to be 57%; in the data set on NCI-H460 [15], 40%; in the data set with NCI-H460 [16], 19%. The Activity was 25% with Mus musculus [17], 32% with Mus musculus [18], “Toxic” in the data set with Mus musculus [19] and “Non-toxic” with Mus musculus [20].

In the case of `O=C(NC1CC1)c1ccc(-c2cnc3c(NCC4CCOCC4)cc(Oc4ccccc4F)nn23)cc1`, the solubility thermodynamic in data set [1] turned out to be 8 µg/mL (≈ 16 µM). Moreover, in data set [2], the remaining at 0.5 h is 39%. The compound also registered a clearance in [3] of 22 mL/min/kg. Moreover, in [4], the Vd came to 2 L/kg. This compound gave an AUC in data set [6] of 126 ng·h/mL. In addition, the highest level in data set [7] (Cmax) was 16 ng/mL. Further, the bioavailability in data set [5] was determined as 16%.

`COc1cc(Nc2ncc3c(n2)-c2ccc(Cl)cc2C(c2c(F)cccc2OC)=NC3)ccc1C(=O)O` [ALISERTIB]: the IC50 with NCI-H358 is 100 nM; in the data set with MRC5 it was more than 10000 nM; in “cells [21]”, 62 nM; in the data set “cells [22]”, 97 nM; in the data set “cells [23]”, 77 nM; in “cells [24]” it was 170 nM. Besides, the concentration for half-maximal inhibition (IC50) was found to be 740 nM in the data set “cells [25]”; 95 nM in “cells [26]”; 330 nM in the data set with HT-29; 130 nM in the data set “cells [27]”; 39 nM in “cells [28]”; 93 nM in “cells [29]”. This compound came in with a concentration for half-maximal inhibition (IC50) in the data set “cells [30]” of 74 nM.

Regarding `N#Cc1ccc(-c2cn3c(-c4ccc(C(=O)NC5CC5)cc4)cnc3c(NCC3CCOCC3)n2)cc1`, in data set [1], the solubility thermodynamic was found to be 1 µg/mL (≈ 2.03 µM). For the same compound, in data set [2], the remaining at 0.5 h amounted to 0%. Further, the clearance in [3] is 145 mL/min/kg. The Vd in data set [4] was 5 L/kg. This compound also gave a bioavailability in data set [5] of 0%.

Take `N#Cc1ccc(-c2cc(NCC3CCOCC3)c3ncc(-c4ccc(C(=O)NC5CC5)cc4)n3n2)cc1`: the solubility thermodynamic in data set [1] is 0.49 µg/mL (≈ 0.995 µM). Besides, the remaining at 0.5 h in data set [2] worked out at 42%. In data set [3], the clearance came to 38 mL/min/kg. Also, the Vd in data set [4] stood at 4.2 L/kg. In [5], this compound displayed a bioavailability of 0%.

Take `CC(=O)O[C@H]1C(=O)[C@@]2(C)[C@H]([C@H](OC(=O)c3ccccc3)[C@]3(O)C[C@H](OC(=O)[C@H](O)[C@@H](NC(=O)c4ccccc4)c4ccccc4)C(C)=C1C3(C)C)[C@]1(OC(C)=O)CO[C@@H]1C[C@@H]2O` [PACLITAXEL]: the half-maximal inhibitory concentration (IC50) stood at 7.9 nM with NCI-H358; 80 nM with MRC5; 10 nM with NCI-H460 [31]; 5.2 nM in “cells [21]”; 5.1 nM in “cells [22]”; 2.5 nM in the data set “cells [23]”. Further, the IC50 came out at 4.4 nM in the data set “cells [24]”; 240 nM in the data set “cells [25]”; 6.1 nM in “cells [26]”; 7 nM with HT-29; 6.1 nM in the data set “cells [27]”; 3.4 nM in the data set “cells [28]”. The 50% inhibitory concentration (IC50) in the data set “cells [29]” came out at 4 nM; in “cells [30]” it was 7.9 nM.
